PMC8345109, “Optimization of New Catalytic Topoisomerase II Inhibitors as an Anti-Cancer Therapy” (Cancers, 2021)
Converted amounts (≈) assume the structure as drawn. Read-outs that look alike come from different tables or passages of the source.

How the values were obtained:
Solubility by LC/MS/MS = format: physicochemical; conditions: for solubility at 1 h: kinetic from dmso stock
Experimental: Stock solutions of the tested compounds at 50 mM in dimethyl sulfoxide (DMSO) were diluted 50-fold in methanol (MeOH), Roswell Park Memorial Institute-1640 (RPMI1640), plus 5% charcoal-stripped serum (CSS) from Sigma-Aldrich (media) and phosphate-buffered saline (PBS), and vortexed at room temperature for 1 h at 800 rpm. The resulting solutions were centrifuged at 20,000× g for 5 min, and the saturated supernatants were diluted 40-fold in acetonitrile. The resultant solutions were subjected to LC/MS/MS to determine the solubility.

TOP2A [1] = molecular target: T1, TOP2A (Homo sapiens, UniProt P11388); assay: K-DNA decatenation assay, TOP2A; format: biochemical; conditions: 0.01-200 uM, three biological repeats
Experimental: (§1) Figure 2 T637 and T638 are TOP2A inhibitors. (A) K-DNA decatenation assays and (B) supercoiled plasmid DNA relaxation assays are used to measure TOP2A enzyme activity in the presence of 0.01–200 uM T637 or T638. Three biological repeats were performed with each concentration of the compounds, and the densitometry of the D-DNA bands from (A) and the SC bands from (B) was used to establish an inhibition curve for IC50 calculation.

TOP2A [2] = molecular target: T1, TOP2A; assay: Supercoiled plasmid DNA relaxation assay, TOP2A; format: biochemical; conditions: 0.01-200 uM, three biological repeats
Experimental: as §1

TOP2B [3] = molecular target: T2, TOP2B (Homo sapiens, UniProt Q02880); assay: K-DNA decatenation assay, TOP2B; format: biochemical; conditions: 0.01-200 uM, three biological repeats
Experimental: as §1, with “Figure 3” for “Figure 2”, “are TOP2B” for “are TOP2A”, “measure TOP2B” for “measure TOP2A enzyme”

TOP2B [4] = molecular target: T2, TOP2B; assay: Supercoiled plasmid DNA relaxation assay, TOP2B; format: biochemical; conditions: 0.01-200 uM, three biological repeats
Experimental: as §1, with “Figure 3” for “Figure 2”, “are TOP2B” for “are TOP2A”, “measure TOP2B” for “measure TOP2A enzyme”

salmon sperm DNA = assay: Ethidium bromide displacement assay; format: binding; conditions: 100 µg/mL salmon sperm DNA, 2 µg/mL ethidium bromide
Experimental: (§2) (A) Ethidium bromide displacement assays were performed by mixing 100 µg/mL salmon sperm DNA with −/+2 µg/mL ethidium bromide and the indicated compounds. Reactions were subjected to fluorescence emission of 590 nm and excitation of 535 nm. Obtained signals were detected by using the Multimode Microplate Reader (Infinite F500). […] Reactions were subjected to 5–20% LED/excitation power and medium MST power using premium capillaries. Obtained signals were detected by using the Monolith NT.115 system. The change in thermophoresis is expressed as the change in the normalized fluorescence (ΔFnorm). MST assays were repeated with two control compounds, enzalutamide (Enza) and merbarone.

human TOP2A(431-1193) [5] = molecular target: T3, human TOP2A(431-1193) (Homo sapiens, UniProt P11388); assay: EMSA, TOP2A(431-1193) with 5ZRF DNA oligo; format: binding; conditions: 2 uM protein, 300 nM oligo
T3 construct: 6xHis (N); made in house; host or cells: E. coli BL21 (DE3)

human TOP2A(431-1193) [6] = molecular target: T3, human TOP2A(431-1193); assay: Fluorescence polarization (FP) assay of TOP2A-DNA interaction; format: binding; conditions: 500 nM protein, 0.01-200 µM compound
Experimental: Fluorescent polarization assay was performed in Corning® Low Volume 384-well Black Flat Bottom microplate. […] Triplicate reactions were transferred onto the microplate and incubated at room temperature for 20 min. Fluorescence polarization (FP) measurements were taken by Tecan Infinite F500 with the excitation wavelength of 485 nm and emission wavelength of 535 nm.
(§3) (A) EMSA was performed by purified full-length TOP2A or TOP2B proteins at a contraction of 300 nM with IRDay700 labeled 5ZRF DNA oligo at a concentration of 100 nM in the presence of −/+200 µM of ICRF193, T60, T637, and T638. […] Reactions were subjected to fluorescence […], which were detected by using the Multimode Microplate Reader (Infinite F500). (D) DNA cleavage assays were performed using full-length human TOP2A and TOP2B incubated with the supercoiled pHOT plasmid in the presence of 200 µM of etoposide plus 1, 100, or 200 µM of ICRF193, T60, T637, and T638. Reactions were separated on a DNA gel with ethidium bromide. All experiments were repeated three times, and one representative image was shown. Note: N, nicked DNA; L, linear DNA; and SC, supercoiled DNA.

[7] = Crystal formation (precipitation) in cell cultures; format: physicochemical
Experimental: Both T637 and T638 have improved solubility in aqueous solution and culture media compared to T60 (Figure 1). […] When cells are growing in the culture media and treated with T60 at concentrations ≥50 uM for two days, T60 will form crystals, likely due to the altered pH values by the cells that induce T60 precipitation. […] These improvements in solubility allow higher doses of compounds to be used to treat cancer cells to reach maximum tumor suppression.

in vitro = conditions: mouse, liver microsomes, pH 7.4
Experimental: The reaction was initiated by adding NADPH, followed by incubation at 37 °C. […] The samples were then vortexed and centrifuged at 16,000 rpm for 10 min at 4 °C. The supernatants were collected and analyzed by LC/MS/MS to determine the remaining percentage and the half-life (t1/2) by integrating compound peaks and fitting the resulting AUC values and time points to a one-phase decay equation.

K562 cells [8] = assay: Cytotoxicity by LDH release; conditions: for Cytotoxicity (LDH release), in words: K562, 0-20 uM, 48 h
Experimental: (§4) (A) K562 cells were treated with 0, 0.5, 1, 5, 10, 15, and 20 uM of T60 or 0, 0.5, 1, 5, 10, 15, 20, 50, and 100 uM of T637 and T638 for 24, 48, or 72 h. […] (B) NCI-H446 small cell lung cancer line and Hela cervical cancer line were treated with 0, 0.5, 1, 5, 10, 15, and 20 uM of T60 or 0, 0.5, 1, 5, 10, 15, 20, 50, and 100 uM of T637 and T638 for five days. Cell growth rates were measured by using Incucyte^TM. (C) K562 cells were treated with 0, 5, 10, 15, and 20 uM of T60, T637, or T638 for 48 h. Cytotoxicity was evaluated by measuring the LDH levels from the culture media. (D) K562 cells were treated with the vehicle or 10–20 µM of etoposide, T60, T637, or T638 for 4 h. Immunoblotting measured p-H2AXγ levels in cells with vinculin as a loading control.

K562 leukemia cells = assay: K562 cell proliferation (MTS assay); conditions: for inhibition at 20 µM: Homo sapiens, read-out: Maximum cell proliferation inhibition; for Maximum cell proliferation inhibition: K562, up to 100 uM
Experimental: as §4

full-length TOP2A [9] = molecular target: T4, full-length TOP2A (Homo sapiens, UniProt P11388); assay: EMSA, full-length TOP2A with 5ZRF DNA oligo; format: binding; design: EMSA was performed by purified full-length TOP2A or TOP2B proteins; conditions: 200 µM compound, 300 nM protein, 100 nM oligo
Experimental: as §3

full-length TOP2B [10] = molecular target: T5, full-length TOP2B (Homo sapiens, UniProt Q02880); assay: EMSA, full-length TOP2B with 5ZRF DNA oligo; format: binding; design: EMSA was performed by purified full-length TOP2A or TOP2B proteins; conditions: 200 µM compound, 300 nM protein, 100 nM oligo
Experimental: as §3

K562 cells [11] = assay: Immunoblotting of p-H2AXγ (DNA damage); conditions: K562, 10-20 µM, 4 h
Experimental: as §4

full-length TOP2A [12] = molecular target: T4, full-length TOP2A; assay: DNA cleavage assay, TOP2A; format: biochemical; design: DNA cleavage assays were performed using full-length human TOP2A and TOP2B; conditions: 200 µM etoposide plus 1, 100 or 200 µM compound, pHOT plasmid
Experimental: as §3

full-length TOP2B [13] = molecular target: T5, full-length TOP2B; assay: DNA cleavage assay, TOP2B; format: biochemical; design: DNA cleavage assays were performed using full-length human TOP2A and TOP2B; conditions: 200 µM etoposide plus 1, 100 or 200 µM compound, pHOT plasmid
Experimental: as §3

human TOP2A(431-1193) [14] = molecular target: T3, human TOP2A(431-1193); assay: Microscale thermophoresis (MST) binding assay; conditions: 5 nM NT647-labelled TOP2A(431-1193)
Experimental: It was transformed into BL21 (DE3) E. coli cells and induced by 0.5 mM IPTG for 16 h at 16 °C. Cells were lysed by sonication and protein purification was by chromatography with the Ni-NTA beads (Invitrogen), followed by a size exclusion chromatography (Superdex 200). […] A serial dilution of the inhibitors was prepared with 100% DMSO and subsequently mixed with the labeled fluorescent protein in the assay buffer (20 mM Tris pH 8.0, 100 mM NaCl, 0.1% NP40, 0.2 mM TCEP, and 0.1 mM PMSF) at the final concentrations of 0.015–500 uM. The final concentration of the protein was 5 nM. The labeled protein and small molecules mix were allowed to incubate in the dark at room temperature for 5 min before filling the capillaries. MST assays were performed with 5–20% LED/excitation power and medium MST power using premium capillaries for Monolith NT.115. The data for the estimation of Kd were analyzed using MO Affinity Analysis software from Nanotemper.
as §2

TOP2A(431-1193) = TOP2A(431-1193) (Homo sapiens, UniProt P11388 431-1193); assay: fluorescence polarization; merbarone 0.01-200 uM; 3 mM Mg2+; FP: 20 mM HEPES-NaOH pH 7.4, 2 mM DTT, 3 mM MgCl2, 0.05% NP-40, protease inhibitors, room temperature 20 min; EMSA buffer not in material; conditions: protein: recombinant; tags: N-terminal 6xHis (pET28a); label: 3' 6-FAM (Results text says NT474 dye); blunt; self-complementary 20-mer, 2 copies
[15] = RPMI1640 plus 5% charcoal-stripped serum, plasma or biological fluid, cell culture media with serum, read-out: Solubility Media/FBS
[16] = methanol, organic solvent or mixture, methanol, read-out: Solubility Methanol
[17] = phosphate-buffered saline, aqueous buffer, PBS, read-out: Solubility PBS

T5 sequence (Q02880 whole entry): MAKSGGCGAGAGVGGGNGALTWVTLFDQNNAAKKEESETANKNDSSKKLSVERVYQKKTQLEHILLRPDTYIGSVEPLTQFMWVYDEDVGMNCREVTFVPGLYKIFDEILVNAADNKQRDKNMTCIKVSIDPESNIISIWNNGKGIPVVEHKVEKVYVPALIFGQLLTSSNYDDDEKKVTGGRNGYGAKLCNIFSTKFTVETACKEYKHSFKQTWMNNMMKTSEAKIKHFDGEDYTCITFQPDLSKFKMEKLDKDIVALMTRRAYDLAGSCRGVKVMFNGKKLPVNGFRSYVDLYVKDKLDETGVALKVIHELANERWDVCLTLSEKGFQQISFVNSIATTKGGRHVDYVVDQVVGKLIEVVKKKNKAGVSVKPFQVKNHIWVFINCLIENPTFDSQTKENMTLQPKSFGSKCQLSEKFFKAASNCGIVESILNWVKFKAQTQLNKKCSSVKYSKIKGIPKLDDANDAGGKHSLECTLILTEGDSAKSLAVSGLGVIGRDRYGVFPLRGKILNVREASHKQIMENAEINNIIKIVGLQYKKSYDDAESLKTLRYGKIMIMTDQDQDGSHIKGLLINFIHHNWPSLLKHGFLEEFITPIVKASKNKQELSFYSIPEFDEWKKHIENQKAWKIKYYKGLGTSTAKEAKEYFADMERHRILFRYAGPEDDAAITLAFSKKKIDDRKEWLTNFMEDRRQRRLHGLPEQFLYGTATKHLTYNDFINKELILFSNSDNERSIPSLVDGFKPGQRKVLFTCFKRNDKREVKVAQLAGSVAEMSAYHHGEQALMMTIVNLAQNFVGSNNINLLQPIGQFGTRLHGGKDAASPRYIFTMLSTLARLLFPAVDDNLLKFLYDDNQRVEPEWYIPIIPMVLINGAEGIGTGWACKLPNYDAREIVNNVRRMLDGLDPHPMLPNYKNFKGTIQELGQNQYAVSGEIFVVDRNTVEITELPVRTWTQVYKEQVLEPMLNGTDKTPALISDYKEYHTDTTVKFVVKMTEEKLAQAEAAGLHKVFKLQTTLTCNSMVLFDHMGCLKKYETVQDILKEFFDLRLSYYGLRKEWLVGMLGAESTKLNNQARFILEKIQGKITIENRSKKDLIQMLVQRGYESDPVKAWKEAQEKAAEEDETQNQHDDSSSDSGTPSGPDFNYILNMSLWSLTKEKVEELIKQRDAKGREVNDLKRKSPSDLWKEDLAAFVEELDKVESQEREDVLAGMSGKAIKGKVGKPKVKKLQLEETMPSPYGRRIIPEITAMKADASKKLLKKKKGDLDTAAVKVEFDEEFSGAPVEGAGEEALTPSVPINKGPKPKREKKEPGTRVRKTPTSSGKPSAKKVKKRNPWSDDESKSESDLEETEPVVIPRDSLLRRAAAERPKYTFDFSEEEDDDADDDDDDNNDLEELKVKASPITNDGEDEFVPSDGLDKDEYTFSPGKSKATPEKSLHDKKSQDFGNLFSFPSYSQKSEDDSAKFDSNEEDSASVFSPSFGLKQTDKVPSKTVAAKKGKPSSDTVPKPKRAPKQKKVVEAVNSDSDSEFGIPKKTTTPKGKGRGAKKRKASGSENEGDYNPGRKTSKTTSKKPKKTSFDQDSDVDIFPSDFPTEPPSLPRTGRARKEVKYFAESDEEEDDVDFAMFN
T2 sequence (Q02880 whole entry): as above
T3 sequence (P11388 431-1193): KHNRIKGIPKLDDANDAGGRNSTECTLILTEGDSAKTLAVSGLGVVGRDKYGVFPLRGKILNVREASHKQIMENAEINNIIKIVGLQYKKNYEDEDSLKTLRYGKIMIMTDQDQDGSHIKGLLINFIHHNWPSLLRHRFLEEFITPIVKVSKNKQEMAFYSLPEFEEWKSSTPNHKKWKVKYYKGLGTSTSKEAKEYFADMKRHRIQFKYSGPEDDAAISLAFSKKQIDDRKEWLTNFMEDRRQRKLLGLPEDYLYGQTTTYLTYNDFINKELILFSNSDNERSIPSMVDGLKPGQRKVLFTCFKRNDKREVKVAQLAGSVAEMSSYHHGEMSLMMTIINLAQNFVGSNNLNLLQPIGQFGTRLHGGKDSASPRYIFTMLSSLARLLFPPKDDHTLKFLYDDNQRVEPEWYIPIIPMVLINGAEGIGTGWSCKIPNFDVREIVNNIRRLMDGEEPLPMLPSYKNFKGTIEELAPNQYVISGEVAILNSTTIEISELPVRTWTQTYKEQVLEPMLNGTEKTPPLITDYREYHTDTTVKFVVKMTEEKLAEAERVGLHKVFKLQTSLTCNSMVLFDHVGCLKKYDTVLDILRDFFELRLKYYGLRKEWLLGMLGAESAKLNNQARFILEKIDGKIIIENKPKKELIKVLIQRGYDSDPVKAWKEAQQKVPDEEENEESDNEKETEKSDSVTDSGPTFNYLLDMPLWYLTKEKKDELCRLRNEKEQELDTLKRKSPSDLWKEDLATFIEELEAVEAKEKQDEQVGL
T4 sequence (P11388 whole entry): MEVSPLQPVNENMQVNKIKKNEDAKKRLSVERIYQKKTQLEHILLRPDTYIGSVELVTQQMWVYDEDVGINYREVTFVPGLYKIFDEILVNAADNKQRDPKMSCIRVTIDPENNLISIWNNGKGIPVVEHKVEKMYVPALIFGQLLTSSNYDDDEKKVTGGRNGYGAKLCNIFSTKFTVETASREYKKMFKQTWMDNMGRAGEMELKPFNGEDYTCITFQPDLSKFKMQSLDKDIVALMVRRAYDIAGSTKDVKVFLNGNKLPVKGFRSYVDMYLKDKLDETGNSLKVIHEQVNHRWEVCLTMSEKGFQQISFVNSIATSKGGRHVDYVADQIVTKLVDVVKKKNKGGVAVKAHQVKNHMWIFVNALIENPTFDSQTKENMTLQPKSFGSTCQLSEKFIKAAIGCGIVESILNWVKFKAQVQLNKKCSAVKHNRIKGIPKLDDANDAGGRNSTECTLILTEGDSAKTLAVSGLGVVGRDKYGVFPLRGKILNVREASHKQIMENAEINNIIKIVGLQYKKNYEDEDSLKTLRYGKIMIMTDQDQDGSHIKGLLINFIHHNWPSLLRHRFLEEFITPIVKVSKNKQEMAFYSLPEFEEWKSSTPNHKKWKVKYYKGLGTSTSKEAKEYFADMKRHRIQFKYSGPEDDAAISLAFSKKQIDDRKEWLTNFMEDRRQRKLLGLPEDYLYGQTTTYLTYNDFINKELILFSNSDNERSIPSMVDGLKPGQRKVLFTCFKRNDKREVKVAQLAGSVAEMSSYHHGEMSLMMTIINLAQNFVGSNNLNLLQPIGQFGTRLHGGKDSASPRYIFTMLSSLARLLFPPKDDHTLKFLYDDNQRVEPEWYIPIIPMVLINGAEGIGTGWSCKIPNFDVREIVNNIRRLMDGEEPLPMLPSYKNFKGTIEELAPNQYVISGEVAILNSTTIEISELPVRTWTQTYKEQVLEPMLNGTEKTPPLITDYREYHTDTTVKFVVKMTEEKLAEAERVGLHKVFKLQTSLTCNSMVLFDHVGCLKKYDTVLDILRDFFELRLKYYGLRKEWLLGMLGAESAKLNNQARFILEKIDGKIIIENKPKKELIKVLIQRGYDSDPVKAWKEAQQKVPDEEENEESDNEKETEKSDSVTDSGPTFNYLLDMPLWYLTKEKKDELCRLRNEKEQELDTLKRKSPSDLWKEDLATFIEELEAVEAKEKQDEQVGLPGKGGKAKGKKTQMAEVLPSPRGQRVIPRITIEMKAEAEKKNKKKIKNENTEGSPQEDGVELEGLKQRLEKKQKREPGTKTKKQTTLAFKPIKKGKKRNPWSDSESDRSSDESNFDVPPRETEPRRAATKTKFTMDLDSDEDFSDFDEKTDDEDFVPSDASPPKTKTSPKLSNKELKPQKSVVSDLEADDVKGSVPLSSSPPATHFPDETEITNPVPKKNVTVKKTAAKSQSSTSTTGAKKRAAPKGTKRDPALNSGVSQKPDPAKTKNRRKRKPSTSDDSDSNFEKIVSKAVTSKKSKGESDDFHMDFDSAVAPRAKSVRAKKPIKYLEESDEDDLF
T1 sequence (P11388 whole entry): as above
Sequence of TOP2A(431-1193) (P11388 431-1193): as the sequence (P11388 431-1193) above

O=C(Nc1ccc(Nc2ccccc2)cc1)c1ccc[nH]c1=S [T60]
solubility at 1 h (Solubility by LC/MS/MS; [15]): 206 µM
Solubility Media/FBS (Solubility by LC/MS/MS; cell culture media with serum): ~ 200 uM
solubility at 1 h (Solubility by LC/MS/MS; [16]): > 1000 µM
solubility at 1 h (Solubility by LC/MS/MS; [17]): 5.8 µM (≈ 1.86 µg/mL)
IC50 (TOP2A [1]): ~0.3 µM
IC50 (TOP2A [2]): 4.7 µM
IC50 (TOP2B [3]): ~3.1 µM
IC50 (TOP2B [4]): ~8.9 µM
Fluorescence induced by the ethidium bromide/DNA complex reduced by increasing doses (DNA intercalation) (salmon sperm DNA): not
Inhibition of TOP2A(431-1193)-DNA interaction (EMSA) (human TOP2A(431-1193) [5]): inhibited TOP2A–DNA interaction dose-dependently
Effect on TOP2A-DNA interaction (FP) (human TOP2A(431-1193) [6]): reduced the TOP2A–DNA interaction in a dose-dependent manner
Concentration at which the compound forms crystals in culture media with growing cells ([7]; cells treated for two days): ≥ 50 µM
half-life at 1 uM (in vitro): 51 min
microsomal CLint at 1 uM (in vitro): 46 µL/min/mg
Cytotoxicity (LDH release), in words (K562 cells [8]): not observed
inhibition at 20 µM (K562 leukemia cells; K562, 24 h): ~38%
inhibition at 20 µM (K562 leukemia cells; K562, 48 h): 71%
inhibition at 20 µM (K562 leukemia cells; K562, 72 h): 86%
Block of TOP2A-DNA oligo complex formation (EMSA) (full-length TOP2A [9]): block
Block of TOP2B-DNA oligo complex formation (EMSA) (full-length TOP2B [10]): block

CC(=O)Nc1cc(Nc2ccccc2)ccc1NC(=O)c1ccc[nH]c1=S [T637]
solubility at 1 h (Solubility by LC/MS/MS; [15]): 707 µM
solubility at 1 h (Solubility by LC/MS/MS; [16]): > 1000 µM
solubility at 1 h (Solubility by LC/MS/MS; [17]): 20 µM (≈ 7.57 µg/mL)
IC50 (TOP2A [1]): ~1.4 µM
IC50 (TOP2A [2]): 16.8 µM
IC50 (TOP2B [3]): ~8.9 µM
IC50 (TOP2B [4]): ~18.6 µM
Fluorescence induced by the ethidium bromide/DNA complex reduced by increasing doses (DNA intercalation) (salmon sperm DNA): not
Inhibition of TOP2A(431-1193)-DNA interaction (EMSA) (human TOP2A(431-1193) [5]): inhibited TOP2A–DNA interaction dose-dependently
Effect on TOP2A-DNA interaction (FP) (human TOP2A(431-1193) [6]): reduced the TOP2A–DNA interaction in a dose-dependent manner
Crystal formation in cell cultures, in words ([7]; up to 100 uM): no crystal formation
half-life at 1 uM (in vitro): 20 min
microsomal CLint at 1 uM (in vitro): 116 µL/min/mg
Cytotoxicity (LDH release), in words (K562 cells [8]): not observed
Maximum cell proliferation inhibition (K562 leukemia cells; 48 h): 100%
Maximum cell proliferation inhibition (K562 leukemia cells; 72 h): 100%
Intracellular DNA damage (phospho-H2AXγ protein levels) (K562 cells [11]): do not cause intracellular DNA damage
Block of TOP2A-DNA oligo complex formation (EMSA) (full-length TOP2A [9]): block
Block of TOP2B-DNA oligo complex formation (EMSA) (full-length TOP2B [10]): block
Prevention of etoposide-induced DNA cleavage, TOP2A (full-length TOP2A [12]): did prevent etoposide-induced DNA cleavage
Prevention of etoposide-induced DNA cleavage, TOP2B (full-length TOP2B [13]): did prevent etoposide-induced DNA cleavage

CNC(=O)c1ccc(N2C(=S)N(c3ccc(C#N)c(C(F)(F)F)c3)C(=O)C2(C)C)cc1F [enzalutamide]
Binding to TOP2A(431-1193) by MST (change of thermophoresis), in words (human TOP2A(431-1193) [14]): no alteration of thermophoresis

COc1cc([C@@H]2c3cc4c(cc3[C@@H](O[C@@H]3O[C@@H]5CO[C@@H](C)O[C@H]5[C@H](O)[C@H]3O)[C@H]3COC(=O)[C@H]23)OCO4)cc(OC)c1O [etoposide, reference compound]
Cytotoxicity (LDH release) (K562 cells [8]; K562, 20 uM, two days): up to 70%

COc1cc(NS(C)(=O)=O)ccc1Nc1c2ccccc2nc2ccccc12 [m-AMSA, amsacrine, reference compound]
Fluorescence induced by the ethidium bromide/DNA complex reduced by increasing doses (DNA intercalation) (salmon sperm DNA): reduced

O=C1NC(=S)NC(=O)C1C(=O)Nc1ccccc1 [merbarone, reference compound]
Binding to TOP2A(431-1193) by MST (change of thermophoresis), in words (human TOP2A(431-1193) [14]): no interaction
Inhibition of TOP2A(431-1193)-DNA interaction (EMSA) (human TOP2A(431-1193) [5]): did not affect the formation of the TOP2–DNA complex
Effect on TOP2A-DNA interaction (FP) (human TOP2A(431-1193) [6]): did not affect TOP2A–DNA interaction

ICRF193 [reference compound]
Block of TOP2A-DNA oligo complex formation (EMSA) (full-length TOP2A [9]): not
Prevention of etoposide-induced DNA cleavage, TOP2A (full-length TOP2A [12]): did not prevent etoposide-induced DNA cleavage
Prevention of etoposide-induced DNA cleavage, TOP2B (full-length TOP2B [13]): did not prevent etoposide-induced DNA cleavage

B1: 5ZRF DNA oligo (FAM) (dsDNA)
DNA 1: AGCCGAGCTGCAGCTCGGCT
DNA 2: AGCCGAGCTGCAGCTCGGCT
binding result (TOP2A(431-1193)): binds
